Starred links: 1 amine or outer side, 2 acyl side, 3 side chain; linkers in the order of their positions; H or OH if unused. Non-standard residues stand in square brackets, D forms with d. Residues, ends and D or L forms follow the SMILES beside them. X1 = O=C([C@H](Cc1ccc(O)cc1)N(Cc1cccc(Oc2ccccc2)c1)[*:1])[*:2]; X2 = O=C([C@H](Cc1ccc(O)cc1)N(c1ccc(-c2ccccc2)cc1)[*:1])[*:2]; X3 = O=C([C@H](Cc1ccc(O)cc1)N(Cc1ccsc1)[*:1])[*:2]; NBnTyr = O=C(O)[C@H](Cc1ccc(O)cc1)NCc1ccccc1; tBuAla = CC(C)(C)C[C@H](N)C(=O)O; αMeL = CC(C)C[C@](C)(N)C(=O)O; Nva = CCC[C@H](N)C(=O)O
Experiments:
[1] = Inhibitory activity of YAGAVVNDL against Herpes Simplex Virus type 2 (HSV-2) ribonucleotide reductase determined as control; parameters: species or system Human alphaherpesvirus 2
Human alphaherpesvirus 2 = assay: Relative potency to that of YAGAVVNDL against Herpes Simplex Virus type 2 ribonucleotide reductase
[2] = molecular target: Ribonucleotide reductase (Herpes simplex virus type 2); assay: Compound was tested in vitro for inhibitory activity against Herpes Simplex Virus type 2 ribonucleotide reductase
[3] = The compound was tested in vitro for inhibitory activity against Herpes Simplex Virus type 2 ribonucleotide reductase; parameters: species or system Human alphaherpesvirus 2

SMILES	IC50 [1] [µM]	Relative potency (Human alphaherpesvirus 2)	IC50 [2] [µM]	IC50 [3] [µM]
CC(C)C[C@H](NC(=O)[C@H](CC(=O)O)NC(=O)[C@H](CC(N)=O)NC(=O)[C@@H](NC(=O)[C@@H](NC(=O)Cc1ccc2ccccc2c1)C(C)C)C(C)C)C(=O)O	30	6	5	
CCC[C@H](NC(=O)[C@H](CC(=O)O)NC(=O)[C@H](CC(N)=O)NC(=O)[C@@H](NC(=O)[C@@H](NC(=O)[C@@H](N)Cc1ccc(O)cc1)C(C)C)C(C)C)C(=O)O (H-YVVND[Nva]-OH)	25	0.16		160
CC(C)[C@H](NC(=O)[C@@H](NC(=O)[C@@H](N)Cc1ccc(O)cc1)C(C)C)C(=O)N[C@@H](CC(N)=O)C(=O)N[C@@H](CC(=O)O)C(=O)N[C@@H](CC(C)(C)C)C(=O)O (H-YVVND[tBuAla]-OH)	43	3.3		13
CC(C)C[C@](C)(NC(=O)[C@H](CC(=O)O)NC(=O)[C@H](CC(N)=O)NC(=O)[C@@H](NC(=O)[C@@H](NC(=O)[C@@H](N)Cc1ccc(O)cc1)C(C)C)C(C)C)C(=O)O (H-YVVND[αMeL]-OH)	38	0.12		320
CC(C)[C@H](NC(=O)[C@H](Cc1ccc(O)cc1)NCc1ccccc1)C(=O)N[C@H](C(=O)N[C@@H](CC(=O)N(C)C)C(=O)N[C@@H](CC(=O)O)C(=O)N[C@@H](CC(C)(C)C)C(=O)O)C(C)C (H-[NBnTyr]VVD(NMe2)D[tBuAla]-OH)	18	60		0.3
CC(C)C[C@H](NC(=O)[C@H](CC(=O)O)NC(=O)[C@H](CC(N)=O)NC(=O)[C@@H](NC(=O)[C@@H](NC(=O)[C@H](Cc1ccc(O)cc1)NCc1ccccc1)C(C)C)C(C)C)C(=O)O (H-[NBnTyr]VVNDL-OH)	30	5	6	
CC(C)[C@H](NC(=O)[C@H](Cc1ccc(O)cc1)NCc1ccccc1)C(=O)N[C@H](C(=O)N[C@@H](CC(N)=O)C(=O)N[C@@H](CC(=O)O)C(=O)N[C@@H](CC(C)(C)C)C(=O)O)C(C)C (H-[NBnTyr]VVND[tBuAla]-OH)	35	23		1.5
CC(C)C[C@H](NC(=O)[C@H](CC(=O)O)NC(=O)[C@H](CC(N)=O)NC(=O)[C@@H](NC(=O)[C@@H](NC(=O)[C@H](Cc1ccc(O)cc1)NCc1cccc(Oc2ccccc2)c1)C(C)C)C(C)C)C(=O)O (H-[X1]VVNDL-OH)	40	3.3		12
CC(C)C[C@H](NC(=O)[C@H](CC(=O)O)NC(=O)[C@H](CC(N)=O)NC(=O)[C@@H](NC(=O)[C@@H](NC(=O)[C@H](Cc1ccc(O)cc1)Nc1ccc(-c2ccccc2)cc1)C(C)C)C(C)C)C(=O)O (H-[X2]VVNDL-OH)	34	1.1		32
CC(C)C[C@H](NC(=O)[C@H](CC(=O)O)NC(=O)[C@H](CC(N)=O)NC(=O)[C@@H](NC(=O)[C@@H](NC(=O)[C@H](Cc1ccc(O)cc1)NCc1ccsc1)C(C)C)C(C)C)C(=O)O (H-[X3]VVNDL-OH)	80	4		20
CC(C)C[C@H](NC(=O)[C@H](CC(=O)O)NC(=O)[C@H](CC(N)=O)NC(=O)[C@@H](NC(=O)[C@@H](NC(=O)C(Cc1ccccc1)Cc1ccc(O)cc1)C(C)C)C(C)C)C(=O)O (stereo in doubt; form 1)	9.5		0.45	

From ChEMBL document CHEMBL1126344, “Substituted penta- and hexapeptides as potent inhibitors of herpes simplex virus type 2 ribonucleotide reductase” (Bioorg Med Chem Lett, 1992)
